Consider three compounds from patent US20240150705A1, “POLYPHENOL INFUSED PROBIOTICS AND METHODS FOR IMPROVED GUT SURVIVABILITY, PERSISTENCE AND COLONIZATION” (THE REGENTS OF THE UNIVERSITY OF CALIFORNIA, priority 2021, published 2024).

Holding throughout (assay type): cell-based
One assay has as its system L. casei cells. The assay is described as follows: survivability of model probiotic L. casei cells loaded with other polyphenols or mixed with catechin during simulated digestion (FIG. 6). To be noted: for survivability of probiotic bacteria during simulated gastro-intestinal digestion: L. casei cells infused. The protocol: To illustrate the role of phenolic bioactives in influencing cell viability, changes in the intracellular pH and interactions of bile salts with cells were measured after simulated gastric and intestinal treatments respectively. Survivability of cells with and without infused plant extracts were evaluated during simulated gastrointestinal treatments under anaerobic conditions. Simulated gastric fluids (SGF, pH=3) were prepared by adding 0.5% w/v sodium chloride, hydrochloric acid to maintain pH and 3.2 mg/ml pepsin. 1 g of selected bacterial cells with and without infused plant extracts were separately incubated in SGF for 2 h at 37° C. and 100 rpm.
After gastric treatment, the cells were pelleted down by centrifuging at 5000 rpm for 2 min and then resuspended in the simulated intestinal fluids (SIF) containing 3.33 mg/mL calcium chloride, 5 g/L sodium chloride, 10 mM bile salts and pancreatin (100 U/ml) in 0.025 M potassium phosphate buffer (pH=7). Digestion mixtures were incubated at 37° C. and 100 rpm for 2 h. After the simulated gastric and intestinal digestions, both the phenolic infused cells and control cells were isolated by centrifuging at 5000 rpm for 2 min and will be washed three times with autoclaved 1×PBS. Viable cells were enumerated after serial dilutions on selective media plates. The viability of cells were measured in triplicates and the results of these measurements were averaged.
Survivability of probiotic cells was not improved if polyphenols were not infused in cells but only added in the same amount to the gastric fluid.

Assay [1] relates to L. casei, L. paracasei and L. rhamnosus cells. Description: metabolic activity by resazurin fluorescence assay after simulated gastric fluid. To be noted: infused L. casei cells, SGF. The protocol:
For this assay, 6 log CFUs/ml of cells (with and without infused phenolic actives) in selective culture media was prepared. 1 mL of each of the samples were added to a flat bottom 24 well culture plates and 50 μM of resazurin was added to each well plates. Plates were sealed with PCR sealing films inside anerobic cabinet to maintain in-situ anaerobic conditions and were immediately incubated at 37° C. for 16 h. Fluorescence data was collected each 5 min at 580 nm (λex=530 nm). The reduction of resazurin was evaluated by the assay. After cells were treated with simulated gastric fluid, 1 mL of each samples was centrifugated (16,000×g for 2 min) and resuspended in 1 mL of MRS broth containing 50 μM of resazurin. Then, plate was incubated at 37° C. for 16 h and read each 5 min (530 nm/580 nm). […] The reduction of resazurin to resorufin (fluorescent form) was measured to correlate with the metabolic activity of three types of probiotic cells with different infused polyphenols and conditions, as shown in FIG. 7 through FIG. 20. The production of resorufin increases the intensity of fluorescence, while the reduction of the peak is related with the production of hydroresorufin.

Assay [2] has as its system L. paracasei (LP), Lactobacillus casei (LC) and L. rhamnosus (LR) probiotic cells. Description: survivability during simulated gastrointestinal treatments (SGF 2 h, then SIF 2 h). Conditions: for Stability of probiotics against gastric pH and bile salt tolerance: infusion in cells. The protocol: To illustrate the role of phenolic bioactives in influencing cell viability, changes in the intracellular pH and interactions of bile salts with cells were measured after simulated gastric and intestinal treatments respectively. Survivability of cells with and without infused plant extracts were evaluated during simulated gastrointestinal treatments under anaerobic conditions. Simulated gastric fluids (SGF, pH=3) were prepared by adding 0.5% w/v sodium chloride, hydrochloric acid to maintain pH and 3.2 mg/ml pepsin. 1 g of selected bacterial cells with and without infused plant extracts were separately incubated in SGF for 2 h at 37° C. and 100 rpm. After gastric treatment, the cells were pelleted down by centrifuging at 5000 rpm for 2 min and then resuspended in the simulated intestinal fluids (SIF) containing 3.33 mg/mL calcium chloride, 5 g/L sodium chloride, 10 mM bile salts and pancreatin (100 U/ml) in 0.025 M potassium phosphate buffer (pH=7). Digestion mixtures were incubated at 37° C. and 100 rpm for 2 h. After the simulated gastric and intestinal digestions, both the phenolic infused cells and control cells were isolated by centrifuging at 5000 rpm for 2 min and will be washed three times with autoclaved 1×PBS. Viable cells were enumerated after serial dilutions on selective media plates. The viability of cells were measured in triplicates and the results of these measurements were averaged. Live probiotic cells must reach the colon alive for colonization and related health benefits. These figures plot survivability of L. paracasei (LP), Lactobacillus casei (LC) and L. rhamnosus (LR) probiotic cells with and without infused plant extracts during simulated gastrointestinal treatments with simulated gastric fluid (SGF) for 2 h, followed by the treatment with simulated intestinal fluid (SIF) for next 2 h.

“Also recorded” adds a separate entry of the source.

As to `COc1cc(/C=C/C(=O)CC(=O)/C=C/c2ccc(O)c(OC)c2)ccc1O` [curcumin], in the assay on L. casei cells, the “survivability of probiotic bacteria during simulated gastro-intestinal digestion” value is “Enhanced stability; also recorded: significantly enhance survivability”. Besides, the “metabolic activity after simulated gastric treatment” value in assay [1] is reported as “further suppressed”. Also, in assay [2], the “Stability of probiotics against gastric pH and bile salt tolerance” value (“Stability of probiotics” below) is listed as “enhanced”.
As to `O=c1c(O)c(-c2ccc(O)c(O)c2)oc2cc(O)ccc12` [fisetin], the “survivability of probiotic bacteria during simulated gastro-intestinal digestion” value with L. casei cells was “Enhanced stability; also recorded: significantly enhance survivability”. For the same compound, in assay [2], the “Stability of probiotics” value is reported as “enhanced”.
For the compound catechin, the “survivability of probiotic bacteria during simulated digestion” value in the assay with L. casei cells (simply mixed with cells or added to gastric fluid, not infused) was “no significant improvement in survivability”. Also, the “survivability / stability during simulated gastro-intestinal digestion” value in assay [2] (infused cells, SGF then SIF) is “stable; also recorded: maintained their population”. In addition, the “Stability of probiotics” value in assay [2] is “enhanced”.
